Columns and labels:
IL-6 (Interleukin-6) = assay: Inhibition of inflammatory cytokine secretion in LPS-treated immune cells (IL-6 sandwich ELISA); type: cell-based; conditions: Mus musculus, RAW264.7, Raw 264.7, LPS 500 ng/mL, 24 hours, read-out: IL-6 Reduction Activity (%) (Mean±SD)
Protocol: Raw 264.7 cell line was seeded in a 48-well plate at a density of 8×10^4 cells/well, and cultured at 37°C in a DMEM medium including 10% FBS, 100 U/mL of penicillin and 100 µg/mL of streptomycin.
The medium was cultured overnight, and then replaced with a fresh medium including 10 µM of the pharmaceutical composition sensitive to nitrogen monoxide including the compound of each of Examples 1 and 11 to 13 and 500 ng/mL of LPS, and the fresh medium was cultured again for another 24 hours.
Lastly, the supernatant was collected, and then the level of IL-6 (Interleukin-6) expression was analyzed using a Sandwich enzyme-linked immunosorbent assay (ELISA). Specifically, a standard solution and 50 µL of the diluted supernatant were introduced to each well of a well plate coated with an antibody specific to IL-6, and after binding IL-6 to the immobilized antibody, the well was washed with a washing buffer, followed by a reaction with HRP as a secondary antibody for 30 minutes at room temperature. The well was washed three times with a washing buffer, then color was developed using TMB (3,3', 5,5'-tetramethyl benzidine) as a substrate, and the reaction was stopped using 1 M sulfuric acid to measure the degree of color development at an absorbance of 450 nm.

IFN-γ = IFN-γ reduction activity in Concanavalin A-treated splenocytes (quantitative ELISA); type: cell-based, C57BL/6 mouse; conditions: Mus musculus, Splenocyte, Concanavalin A 5 µg/mL, 72 hours, read-out: IFN-γ Reduction Activity (%) (Mean±SD)
Procedure, shortened: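 Splenocytes from 8-week-old C57BL/6 mice at 5×10^6 cells/mL in RPMI 1640 with 10% FBS, stimulated with Concanavalin A (5 µg/mL) plus compound added concentration-dependently. Supernatant IFN-γ measured by quantitative ELISA after 72 h.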

Raw 264.7 cell line = assay: NO scavenging activity in LPS-treated immune cells (Griess reagent); type: cell-based; conditions: Mus musculus, RAW264.7, Raw 264.7, LPS 500 ng/mL, 24 hours, read-out: NO Scavenging Activity (%) (Mean±SD)
JAK 3 = target: T1, JAK 3 (Homo sapiens, UniProt P52333); assay: JAK Human TK kinase enzymatic radiometric assay (Eurofins), JAK 3; type: biochemical; set-up: unit not given here; conditions: value close to 100 indicates low JAK activity of the compound
T1 construct: purchased Eurofins Scientific (assay service)
T1 sequence (P52333 1-1124): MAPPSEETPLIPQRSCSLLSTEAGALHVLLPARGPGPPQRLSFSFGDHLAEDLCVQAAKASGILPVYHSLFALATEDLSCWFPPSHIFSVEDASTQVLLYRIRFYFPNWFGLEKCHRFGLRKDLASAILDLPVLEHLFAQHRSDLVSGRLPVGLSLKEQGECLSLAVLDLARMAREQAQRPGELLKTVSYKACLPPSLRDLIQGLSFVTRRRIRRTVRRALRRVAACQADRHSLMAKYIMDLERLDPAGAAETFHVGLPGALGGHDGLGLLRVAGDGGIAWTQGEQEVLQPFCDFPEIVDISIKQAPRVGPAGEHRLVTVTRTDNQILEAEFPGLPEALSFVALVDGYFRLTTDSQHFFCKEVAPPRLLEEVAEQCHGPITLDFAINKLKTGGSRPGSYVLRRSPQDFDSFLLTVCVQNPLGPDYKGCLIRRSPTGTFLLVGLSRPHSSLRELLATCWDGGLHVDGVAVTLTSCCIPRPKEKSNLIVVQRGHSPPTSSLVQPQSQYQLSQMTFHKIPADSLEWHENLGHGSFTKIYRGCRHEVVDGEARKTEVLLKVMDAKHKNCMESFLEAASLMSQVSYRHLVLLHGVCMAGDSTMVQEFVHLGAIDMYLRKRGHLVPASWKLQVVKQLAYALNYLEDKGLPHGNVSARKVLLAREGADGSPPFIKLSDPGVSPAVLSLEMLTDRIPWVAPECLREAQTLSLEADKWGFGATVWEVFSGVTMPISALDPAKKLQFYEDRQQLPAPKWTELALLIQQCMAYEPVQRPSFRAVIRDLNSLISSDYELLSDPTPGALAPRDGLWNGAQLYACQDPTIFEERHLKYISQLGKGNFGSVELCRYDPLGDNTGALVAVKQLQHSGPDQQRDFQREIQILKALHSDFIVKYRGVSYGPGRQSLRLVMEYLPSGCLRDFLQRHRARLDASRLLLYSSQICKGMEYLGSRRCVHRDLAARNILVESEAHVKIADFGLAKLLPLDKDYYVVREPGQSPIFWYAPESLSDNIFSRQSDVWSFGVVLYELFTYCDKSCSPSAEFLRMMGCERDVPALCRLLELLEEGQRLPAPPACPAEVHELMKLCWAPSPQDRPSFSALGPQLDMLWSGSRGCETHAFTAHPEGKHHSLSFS
From the text: (§1) For the compounds of the Examples, JAK activity of each of the compounds was verified using the JAK Human TK Kinase Enzymatic Radiometric Kinase Profiler Assay service provided by Eurofins Scientific.
(§2) The activity was verified after inducing a reaction at the JAK 1, 2 and 3 active sites using radioactively labeled ATP.

splenocytes [1] = assay: NO scavenging activity in Concanavalin A-treated splenocytes (Griess assay); type: cell-based, C57BL/6 mouse; conditions: Mus musculus, Splenocyte, Concanavalin A 5 µg/mL, 72 hours, read-out: NO Scavenging Activity (%) (Mean±SD)
Procedure, shortened: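 Splenocytes from 8-week-old C57BL/6 mice at 5×10^6 cells/mL in RPMI 1640/10% FBS, stimulated with Concanavalin A (5 µg/mL) plus […] test composition added at plating. After 72 h culture, remaining NO in supernatant measured by Griess assay.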

JAK 1 = JAK 1 (Homo sapiens, UniProt P23458); assay: JAK Human TK kinase enzymatic radiometric assay (Eurofins), JAK 1; conditions: value close to 100 indicates low JAK activity of the compound
splenocytes [2] = assay: Inhibitory activity on cell proliferation in splenocytes (CCK-8 analysis); type: cell-based, C57BL/6 mouse; conditions: Mus musculus, Splenocyte, Concanavalin A 5 µg/mL, 72 hours, read-out: Inhibitory Activity on Cell Proliferation (%) (Mean±SD)
JAK 2 = target: T2, JAK 2 (Homo sapiens, UniProt O60674); assay: JAK Human TK kinase enzymatic radiometric assay (Eurofins), JAK 2; type: biochemical; set-up: unit not given here; conditions: value close to 100 indicates low JAK activity of the compound
T2 construct: purchased Eurofins Scientific (assay service)
From the text: as §1, §2

[3] = Efficacy on DSS induced ulcerative colitis (disease activity index); type: in vivo, mice
Protocol: In order to establish an ulcerative colitis model, 2.5% DSS powder was mixed with drinking water and provided ad libitum. The DSS powder-containing drinking water was supplied for 5 to 6 days of disease induction period, and after that, normal drinking water was supplied.
The administered compounds of Table 21 were administered orally once daily. Hematochezia, diarrhea and body weight loss were scored according to the criteria shown in the following Table 22, and the scores were summed to calculate a disease activity index (DAI), which is shown in FIG. 4.
Efficacy of Compound (4) on ulcerative colitis was verified in the same manner as in Experimental Example 10-1, except that Compound (4) was used instead of Compound (1), and DSS was administered until day 5, and the drug was administered from day 6.

[4] = HPLC analysis of nitrogen monoxide sensitivity (release of the low-molecular-weight compound); type: physicochemical; conditions: NaNO2 / sulfuric acid, 1 hour, room temperature; FIGS. 2A to 2C
Protocol: It was checked whether the pharmaceutical composition sensitive to nitrogen monoxide including the compound according to each of the Examples is capable of releasing a low-molecular-weight compound having pharmaceutical activity by separating a nitrogen monoxide scavenger in an environment where nitrogen monoxide is present.
A sample for HPLC analysis was prepared as follows. 28 mg of NaNO2 (0.41 mmol, 16.4 equiv) was dissolved in 0.3 mL of water, and then the mixture solution was cooled to 0°C to 5°C. After introducing 0.2 mL of sulfuric acid (0.1 mmol, 4 equiv) to the mixture solution, 12.2 mg of Compound (4) (0.025 mmol, 1 equiv), which was prepared in Example 4, dissolved in 0.2 mL of acetone was introduced thereto. The mixture solution was stirred for 1 hour at room temperature. After the reaction was finished, water and dichloromethane were introduced to the reaction solution for extraction. The organic layer was separated, then dried with magnesium sulfate, and filtered. […]
Specifically, referring to FIG. 2A, the peak of Compound (4) of Example 4, which is the pharmaceutical composition sensitive to nitrogen monoxide, was detected at 14.2 minutes. On the other hand, referring to FIG. 2B, the peak of Compound (4) disappeared in an environment where excess nitrogen monoxide is present, and a peak detected at 7.7 minutes was generated.

[5] = Hematological toxicity evaluation after single oral administration (routine blood test); conditions: single oral dose 200 mg/kg and 800 mg/kg, compared with the normal group

T2 sequence (O60674 whole entry): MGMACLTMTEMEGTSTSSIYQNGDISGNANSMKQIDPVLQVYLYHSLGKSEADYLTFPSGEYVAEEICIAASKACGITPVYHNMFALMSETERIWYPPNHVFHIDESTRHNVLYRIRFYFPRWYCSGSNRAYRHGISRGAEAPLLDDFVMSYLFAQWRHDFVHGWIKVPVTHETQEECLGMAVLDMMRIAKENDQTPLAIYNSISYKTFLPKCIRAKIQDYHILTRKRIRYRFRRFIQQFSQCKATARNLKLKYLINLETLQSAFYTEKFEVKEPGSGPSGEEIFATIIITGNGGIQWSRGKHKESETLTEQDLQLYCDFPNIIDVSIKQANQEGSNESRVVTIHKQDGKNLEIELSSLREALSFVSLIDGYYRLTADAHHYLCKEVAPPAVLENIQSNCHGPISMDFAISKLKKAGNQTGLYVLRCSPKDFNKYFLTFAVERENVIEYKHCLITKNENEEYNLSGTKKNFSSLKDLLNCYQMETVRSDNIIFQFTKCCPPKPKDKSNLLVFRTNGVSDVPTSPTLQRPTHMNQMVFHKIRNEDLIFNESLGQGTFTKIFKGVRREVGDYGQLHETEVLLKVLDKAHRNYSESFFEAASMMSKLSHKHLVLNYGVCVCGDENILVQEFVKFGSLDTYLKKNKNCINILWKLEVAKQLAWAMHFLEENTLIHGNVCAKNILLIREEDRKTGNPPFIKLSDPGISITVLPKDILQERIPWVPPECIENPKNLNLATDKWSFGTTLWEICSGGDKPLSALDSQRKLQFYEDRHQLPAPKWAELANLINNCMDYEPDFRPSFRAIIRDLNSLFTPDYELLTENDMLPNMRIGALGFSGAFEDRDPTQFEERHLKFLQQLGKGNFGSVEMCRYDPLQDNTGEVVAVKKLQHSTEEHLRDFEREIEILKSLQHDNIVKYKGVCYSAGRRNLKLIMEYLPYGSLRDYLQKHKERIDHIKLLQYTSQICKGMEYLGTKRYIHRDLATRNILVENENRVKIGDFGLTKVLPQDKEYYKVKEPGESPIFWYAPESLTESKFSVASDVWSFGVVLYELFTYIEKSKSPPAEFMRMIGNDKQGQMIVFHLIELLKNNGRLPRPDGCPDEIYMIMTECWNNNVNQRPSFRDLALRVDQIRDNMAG
Chain of JAK 1 (P23458 whole entry): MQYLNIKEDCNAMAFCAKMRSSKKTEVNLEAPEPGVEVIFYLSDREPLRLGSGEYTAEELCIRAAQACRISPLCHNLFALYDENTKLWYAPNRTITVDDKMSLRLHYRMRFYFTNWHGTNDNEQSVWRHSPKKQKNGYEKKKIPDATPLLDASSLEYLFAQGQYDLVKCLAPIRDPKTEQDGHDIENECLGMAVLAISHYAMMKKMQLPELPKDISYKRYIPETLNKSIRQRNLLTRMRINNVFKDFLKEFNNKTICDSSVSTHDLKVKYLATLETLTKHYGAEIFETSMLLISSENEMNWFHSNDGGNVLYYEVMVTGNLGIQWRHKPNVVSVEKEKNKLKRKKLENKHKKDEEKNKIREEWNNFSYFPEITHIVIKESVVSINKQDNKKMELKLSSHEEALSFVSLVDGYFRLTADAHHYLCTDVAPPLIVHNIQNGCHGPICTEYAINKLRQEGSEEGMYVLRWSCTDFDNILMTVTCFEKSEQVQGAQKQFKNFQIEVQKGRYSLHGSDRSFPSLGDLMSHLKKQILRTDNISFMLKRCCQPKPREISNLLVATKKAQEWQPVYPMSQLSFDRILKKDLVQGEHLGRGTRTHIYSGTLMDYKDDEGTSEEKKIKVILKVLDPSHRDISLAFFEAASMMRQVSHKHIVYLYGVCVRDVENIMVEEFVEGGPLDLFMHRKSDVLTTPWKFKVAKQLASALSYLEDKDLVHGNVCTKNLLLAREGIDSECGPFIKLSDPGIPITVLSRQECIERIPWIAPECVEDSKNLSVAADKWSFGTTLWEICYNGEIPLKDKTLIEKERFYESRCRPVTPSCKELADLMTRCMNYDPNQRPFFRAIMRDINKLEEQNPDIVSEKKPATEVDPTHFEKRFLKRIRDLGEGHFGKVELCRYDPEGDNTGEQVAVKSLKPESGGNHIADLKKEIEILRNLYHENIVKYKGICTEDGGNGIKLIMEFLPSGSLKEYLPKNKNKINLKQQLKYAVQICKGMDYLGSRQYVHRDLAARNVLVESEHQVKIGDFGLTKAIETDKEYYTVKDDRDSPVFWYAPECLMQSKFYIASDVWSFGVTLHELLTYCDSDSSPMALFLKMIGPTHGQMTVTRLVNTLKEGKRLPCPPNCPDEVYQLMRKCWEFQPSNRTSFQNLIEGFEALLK

Row | Compound | activity at 10 µM (IL-6 (Interleukin-6)) | activity at 10 µM (IFN-γ) | activity at 10 µM (Raw 264.7 cell line) | JAK 3 Activity (JAK 3; 0.1 nM) | JAK 3 Activity (JAK 3; 1 nM) | JAK 3 Activity (JAK 3; 10 nM) | JAK 3 Activity (JAK 3; 100 nM) | activity at 10 µM (splenocytes [1]) | JAK 1 Activity (JAK 1; 0.1 nM) | JAK 1 Activity (JAK 1; 1 nM) | JAK 1 Activity (JAK 1; 10 nM) | JAK 1 Activity (JAK 1; 100 nM) | inhibition at 10 µM (splenocytes [2]) | JAK 2 Activity (JAK 2; 0.1 nM) | JAK 2 Activity (JAK 2; 1 nM) | JAK 2 Activity (JAK 2; 10 nM) | JAK 2 Activity (JAK 2; 100 nM) | other results
1 | COc1ccc(NC(=O)N(C(=O)n2ccc3c(N(C)[C@H]4CN(C(=O)CC#N)CC[C@H]4C)ncnc32)c2ccc(OC)cc2N)c(N)c1 [Example 13, N-(2-amino-4-methoxyphenyl)-N-((2-amino-4-methoxyphenyl)carbamoyl)-4-(((3R,4R)-1-(2-cyanoacetyl)-4-methylpiperidin-3-yl) (methyl)amino)-7H-pyrrolo[2,3-d]pyrimidine-7-carboxamide] | 63.1 ± 1.23% | 89.7 ± 0.57% | 34.7 ± 0.28% | 113 | 109 | 112 | 92 | 66.9 ± 5.06% | 110 | 113 | 106 | 89 | 16.1 ± 2.7% | 120 | 107 | 102 | 104 | –
2 | Cc1ccc(NC(=O)N(C(=O)n2ccc3c(N(C)[C@H]4CN(C(=O)CC#N)CC[C@H]4C)ncnc32)c2ccc(C)cc2N)c(N)c1 [Example 12, N-(2-amino-4-methylphenyl)-N-((2-amino-4-methylphenyl)carbamoyl)-4-(((3R,4R)-1-(2-cyanoacetyl)-4-methylpiperidin-3-yl) (methyl)amino)-7H-pyrrolo[2,3-d]pyrimidine-7-carboxamide] | 61.7 ± 1.85% | 97 ± 0.05% | 31.7 ± 0.15% | 114 | 107 | 111 | 88 | 64.6 ± 3.65% | 109 | 110 | 103 | 81 | 64 ± 6.17% | 108 | 111 | 102 | 92 | –
3 | C[C@@H]1CCN(C(=O)CC#N)C[C@@H]1N(C)c1ncnc2c1ccn2C(=O)Nc1ccc(N(C)C)cc1N [Example 4, N-(2-amino-4-(dimethylamino)phenyl)-4-(((3R,4R)-1-(2-cyanoacetyl)-4-methylpiperidin-3-yl)(methyl)amino)-7H-pyrrolo[2,3-d]pyrimidine-7-carboxamide] | – | 98.9 ± 0.03% | 68.7 ± 0.74% | – | – | – | – | 91 ± 0.01% | – | – | – | – | 79.5 ± 6.67% | – | – | – | – | efficacy in alleviating ulcerative colitis compared to tofacitinib ([3]; 25 mg/kg oral once daily, FIGS. 4 and 5): comparable or more superior efficacy; efficacy on disease activity index (DAI) ([3]; DSS until day 5, drug from day 6, day 9 of the test, FIG. 5): statistically significant efficacy was observed; release of the low-molecular-weight compound in the presence of excess nitrogen monoxide (HPLC) [4]: reacted with excess nitrogen monoxide to release tofacitinib; hematological toxicity responses [5]: No hematological toxicity responses were observed

— EP4741395A1, “NOVEL COMPOUND SENSITIVE TO NITROGEN MONOXIDE AND PHARMACEUTICAL COMPOSITION COMPRISING SAME” (Omniamed Co. Ltd, priority 2023, dated 2025)
